Results as given in ChEMBL document CHEMBL5038670, “Design, Synthesis, and Biological Evaluation of Apcin-Based CDC20 Inhibitors” (ACS Med Chem Lett, 2022).
Each block holds one compound with its values, some of them ahead of it. Calls of active or inactive are those of the source. The rule behind the calls is not given here.

Key:
MDA-MB-231 [1] = assay: Cytotoxicity against human TNBC MDA-MB-231 cells assessed as cell viability at 300 uM measured after 72 hrs relative to control; format: functional; details: for viability at 300 µM: read-out: Activity
MDA-MB-468 [2] = assay: Cytotoxicity against human TNBC MDA-MB-468 cells assessed as cell viability at 300 uM measured after 72 hrs relative to control; format: functional; details: for viability at 300 µM: read-out: Activity
MDA-MB-468 [3] = assay: Cytotoxicity against human TNBC MDA-MB-468 cells assessed as cell viability measured after 72 hrs; format: functional, cell-based; details: MDA-MB-468, 72 h
MDA-MB-231 [4] = assay: Cytotoxicity against human TNBC MDA-MB-231 cells assessed as cell viability measured after 72 hrs; format: functional, cell-based; details: MDA-MB-231, 72 h
MDA-MB-468 [5] = assay: Effect on BimL expression in human TNBC MDA-MB-468 cells at 10 to 30 uM measured after 24 hrs by western blot analysis relative to control; format: functional, cell-based; details: dose 10-30 µM
MDA-MB-468 [6] = assay: Downregulation of se-curin level in human TNBC MDA-MB-468 cells at 10 uM measured after 24 hrs by western blot analysis relative to control; format: functional, cell-based
MDA-MB-468 [7] = assay: Downregulation of CDC20 level in human TNBC MDA-MB-468 cells at 30 uM measured after 24 hrs by western blot analysis relative to control; format: functional, cell-based
MDA-MB-468 [8] = assay: Upregulation of cyclin B1 level in human TNBC MDA-MB-468 cells at 10 uM measured after 24 hrs by western blot analysis relative to control; format: functional, cell-based
MDA-MB-468 [9] = assay: Downregulation of se-curin level in human TNBC MDA-MB-468 cells at 30 uM measured after 24 hrs by western blot analysis relative to control; format: functional, cell-based
MDA-MB-468 [10] = assay: Downregulation of CDC20 level in human TNBC MDA-MB-468 cells at 10 uM measured after 24 hrs by western blot analysis relative to control; format: functional, cell-based
MDA-MB-468 [11] = assay: Effect on BimS expression in human TNBC MDA-MB-468 cells at 10 to 30 uM measured after 24 hrs by western blot analysis relative to control; format: functional, cell-based; details: dose 10-30 µM
MDA-MB-468 [12] = assay: Antitumor activity against human MDA-MB-468 cells assessed as induction of cell death at 30 uM measured after 24 hour relative to control; format: functional, cell-based
MDA-MB-468 [13] = assay: Effect on BimEL expression in human TNBC MDA-MB-468 cells at 10 to 30 uM measured after 24 hrs by western blot analysis relative to control; format: functional, cell-based; details: dose 10-30 µM
MDA-MB-468 [14] = assay: Downregulation of cyclin B1 level in human TNBC MDA-MB-468 cells at 30 uM measured after 24 hrs by western blot analysis relative to control; format: functional, cell-based
Sus scrofa [15] = species: Sus scrofa; assay: Inhibition of porcine brain tubulin polymerization at 10 uM measured for 60 mins by spectrophotometric method relative to control
Sus scrofa [16] = species: Sus scrofa; assay: Induction of porcine brain tubulin polymerization at 10 uM measured for 60 mins by spectrophotometric method relative to control; format: tissue-based
MDA-MB-468 [17] = assay: Upregulation of cyclin B1 level in human TNBC MDA-MB-468 cells at 80 uM measured after 24 hrs by western blot analysis relative to control; format: functional, cell-based

Structure (SMILES): Cc1ncc([N+](=O)[O-])n1CCOC(=O)NC(Nc1c(Cl)nc(N)nc1Cl)C(F)(F)Cl (stereo unspecified)
Activity (MDA-MB-231 [1]): inactive
viability at 300 µM (MDA-MB-468 [2]): 52%

Structure (SMILES): Cc1sc(NC(NC(=O)OCCN2CCOCC2)C(F)(F)Cl)nc1-c1ccc(OC(F)(F)F)cc1 (stereo unspecified)
IC50 (MDA-MB-468 [3]): 32.6 µM
IC50 (MDA-MB-231 [4]): 14.2 µM

Structure (SMILES): Cc1ncc([N+](=O)[O-])n1CCOC(=O)NC(Nc1nc2ccccc2[nH]1)C(F)(F)Cl (stereo unspecified)
viability at 300 µM (MDA-MB-231 [1]): 70%
viability at 300 µM (MDA-MB-468 [2]): 47%

Structure (SMILES): COc1ccc(-c2csc(NC(NC(=O)OCCn3c([N+](=O)[O-])cnc3C)C(F)(Cl)Cl)n2)cc1 (stereo unspecified)
IC50 (MDA-MB-468 [3]): 39.3 µM
IC50 (MDA-MB-231 [4]): 63.5 µM

Structure (SMILES): Cc1ncc([N+](=O)[O-])n1CCOC(=O)NC(Nc1nc2ccc(Cl)cc2s1)C(F)(F)Cl (stereo unspecified)
IC50 (MDA-MB-468 [3]): 42.2 µM
IC50 (MDA-MB-231 [4]): 44.5 µM

Structure (SMILES): Cc1ncc([N+](=O)[O-])n1CCOC(=O)NC(Nc1nc2ccc([N+](=O)[O-])cc2s1)C(F)(F)Cl (stereo unspecified)
IC50 (MDA-MB-468 [3]): 40.1 µM
IC50 (MDA-MB-231 [4]): 37.8 µM

Structure (SMILES): Cc1ncc([N+](=O)[O-])n1CCOC(=O)NC(Nc1nc(-c2ccc(Cl)cc2Cl)cs1)C(F)(F)Cl (stereo unspecified)
IC50 (MDA-MB-468 [3]): 14.4 µM
IC50 (MDA-MB-231 [4]): 21.4 µM

Structure (SMILES): Cc1ncc([N+](=O)[O-])n1CCOC(=O)NC(Nc1nc2ccccc2s1)C(F)(F)Cl (stereo unspecified)
viability at 300 µM (MDA-MB-231 [1]): 66%
viability at 300 µM (MDA-MB-468 [2]): 21%

Structure (SMILES): Cc1sc(NC(NC(=O)OCCn2c([N+](=O)[O-])cnc2C)C(F)(Cl)Cl)nc1-c1ccc(OC(F)(F)F)cc1 (stereo unspecified)
Activity (MDA-MB-468 [5]): Dose-Dependent Effect
Activity (MDA-MB-468 [6]): Active
Activity (MDA-MB-468 [7]): Active
Activity (MDA-MB-468 [8]): Active
IC50 (MDA-MB-468 [3]): 13.2 µM
Activity (MDA-MB-468 [9]): Active
Activity (MDA-MB-468 [10]): inactive
Activity (MDA-MB-468 [11]): Dose-Dependent Effect
IC50 (MDA-MB-231 [4]): 10.8 µM
Activity (MDA-MB-468 [12]): Active
Activity (MDA-MB-468 [13]): Dose-Dependent Effect
Activity (MDA-MB-468 [14]): Active

Structure (SMILES): Cc1ncc([N+](=O)[O-])n1CCOC(=O)NC(N1CCOCC1)C(F)(F)Cl (stereo unspecified)
Activity (MDA-MB-231 [1]): inactive
Activity (MDA-MB-468 [2]): inactive

Structure (SMILES): COc1ccc(-c2csc(NC(NC(=O)OCCn3c([N+](=O)[O-])cnc3C)C(F)(F)Cl)n2)cc1 (stereo unspecified)
IC50 (MDA-MB-468 [3]): 49.2 µM
IC50 (MDA-MB-231 [4]): 63.1 µM

Structure (SMILES): Cc1ncc([N+](=O)[O-])n1CCOC(=O)NC(Nc1nc2c(F)cc(F)cc2s1)C(F)(F)Cl (stereo unspecified)
IC50 (MDA-MB-468 [3]): 101 µM
IC50 (MDA-MB-231 [4]): 106 µM

Structure (SMILES): Cc1ncc([N+](=O)[O-])n1CCOC(=O)NC(Nc1nc2ccc(C#N)cc2s1)C(F)(F)Cl (stereo unspecified)
IC50 (MDA-MB-468 [3]): 116 µM
IC50 (MDA-MB-231 [4]): 80.8 µM

Structure (SMILES): Cc1ncc([N+](=O)[O-])n1CCOC(=O)NC(Nc1ncc(C#N)cn1)C(F)(F)Cl (stereo unspecified)
Activity (MDA-MB-468 [2]): inactive

Structure (SMILES): COC(=O)c1ccc(-c2csc(NC(NC(=O)OCCn3c([N+](=O)[O-])cnc3C)C(F)(F)Cl)n2)cc1 (stereo unspecified)
IC50 (MDA-MB-468 [3]): 18.7 µM
IC50 (MDA-MB-231 [4]): 34.5 µM

Structure (SMILES): COC(=O)c1sc(NC(NC(=O)OCCn2c([N+](=O)[O-])cnc2C)C(F)(F)Cl)nc1-c1ccccc1 (stereo unspecified)
IC50 (MDA-MB-468 [3]): 23.5 µM
IC50 (MDA-MB-231 [4]): 42.1 µM

inhibition (Sus scrofa [15]): inactive
Structure (SMILES): Cc1ncc([N+](=O)[O-])n1CCOC(=O)NC(Nc1nc(-c2ccc(C#N)c(F)c2)cs1)C(F)(F)Cl (stereo unspecified)
IC50 (MDA-MB-468 [3]): 14.4 µM
IC50 (MDA-MB-231 [4]): 24.1 µM

Structure (SMILES): COc1ccc(-c2csc(NC(NC(=O)OCCn3c([N+](=O)[O-])cnc3C)C(F)(F)Cl)n2)cc1O (stereo unspecified)
IC50 (MDA-MB-468 [3]): 82.5 µM
IC50 (MDA-MB-231 [4]): 224 µM

Structure (SMILES): Cc1ncc([N+](=O)[O-])n1CCOC(=O)NC(Nc1nc2ccc(S(C)(=O)=O)cc2s1)C(F)(F)Cl (stereo unspecified)
IC50 (MDA-MB-468 [3]): > 300 µM
IC50 (MDA-MB-231 [4]): 230 µM

Structure (SMILES): COc1ccc(-c2csc(NC(NC(=O)OCCN3CCOCC3)C(F)(F)Cl)n2)cc1 (stereo unspecified)
IC50 (MDA-MB-468 [3]): 47.5 µM
IC50 (MDA-MB-231 [4]): 52.6 µM

inhibition (Sus scrofa [15]): inactive
Structure (SMILES): Cc1ncc([N+](=O)[O-])n1CCOC(=O)NC(Nc1nc2ccc(OC(F)(F)F)cc2s1)C(F)(F)Cl (stereo unspecified)
IC50 (MDA-MB-468 [3]): 11.2 µM
IC50 (MDA-MB-231 [4]): 21.2 µM

inhibition (Sus scrofa [15]): inactive
Structure (SMILES): Cc1sc(NC(NC(=O)OCCn2c([N+](=O)[O-])cnc2C)C(F)(F)Cl)nc1-c1ccc(OC(F)(F)F)cc1 (stereo unspecified)
Activity (MDA-MB-468 [5]): Dose-Dependent Effect
Activity (MDA-MB-468 [7]): Active
IC50 (MDA-MB-468 [3]): 11.4 µM
Activity (MDA-MB-468 [9]): Active
Activity (MDA-MB-468 [10]): Active
Activity (MDA-MB-468 [11]): Dose-Dependent Effect
IC50 (MDA-MB-231 [4]): 12 µM
Activity (MDA-MB-468 [12]): Active
Activity (MDA-MB-468 [13]): Dose-Dependent Effect
Activity (MDA-MB-468 [14]): Active

Structure (SMILES): Cc1ncc([N+](=O)[O-])n1CCOC(=O)NC(Nc1nc(-c2ccc(S(C)(=O)=O)cc2)cs1)C(F)(F)Cl (stereo unspecified)
IC50 (MDA-MB-468 [3]): 103 µM
IC50 (MDA-MB-231 [4]): > 300 µM

Structure (SMILES): Cc1ncc([N+](=O)[O-])n1CCOC(=O)NC(Nc1ncccn1)C(F)(F)Cl (stereo unspecified)
viability at 300 µM (MDA-MB-231 [1]): 52%
viability at 300 µM (MDA-MB-468 [2]): 40%

Structure (SMILES): Cc1ncc([N+](=O)[O-])n1CCOC(=O)NC(Nc1nc2ccc(F)cc2s1)C(F)(F)Cl (stereo unspecified)
IC50 (MDA-MB-468 [3]): 73.7 µM
IC50 (MDA-MB-231 [4]): 80.7 µM

inhibition (Sus scrofa [15]): inactive
Structure (SMILES): Cc1sc(NC(NC(=O)OCCn2c([N+](=O)[O-])cnc2C)C(F)(F)Cl)nc1-c1ccc(Cl)cc1 (stereo unspecified)
IC50 (MDA-MB-468 [3]): 10.1 µM
IC50 (MDA-MB-231 [4]): 12.6 µM

Structure (SMILES): CC(=O)O[C@H]1C(=O)[C@@]2(C)[C@H]([C@H](OC(=O)c3ccccc3)[C@]3(O)C[C@H](OC(=O)[C@H](O)[C@@H](NC(=O)c4ccccc4)c4ccccc4)C(C)=C1C3(C)C)[C@]1(OC(C)=O)CO[C@@H]1C[C@@H]2O
inhibition (Sus scrofa [16]): Active

Structure (SMILES): Cc1ncc([N+](=O)[O-])n1CCOC(=O)NC(Nc1ncccn1)C(Cl)(Cl)Cl (stereo unspecified)
Activity (MDA-MB-468 [17]): Active
IC50 (MDA-MB-468 [3]): 53.5 µM
IC50 (MDA-MB-231 [4]): 91.4 µM

Structure (SMILES): CC(=O)Nc1ccc(-c2csc(NC(NC(=O)OCCn3c([N+](=O)[O-])cnc3C)C(F)(F)Cl)n2)cc1 (stereo unspecified)
IC50 (MDA-MB-468 [3]): 66.5 µM
IC50 (MDA-MB-231 [4]): 75.7 µM

Structure (SMILES): Cc1ncc([N+](=O)[O-])n1CCOC(=O)NC(Nc1nc(-c2ccc(OC(F)(F)F)cc2)cs1)C(F)(F)Cl (stereo unspecified)
IC50 (MDA-MB-468 [3]): 23.3 µM
IC50 (MDA-MB-231 [4]): 12 µM
